The subject of one test is mutant BRAF. The conditions noted are these: cell lines; cited from earlier work.
Test [1] has as its system MEK and ERK phosphorylation. As to conditions: BRAF mutated cell lines; cited from earlier work.
The test system of a further test is melanoma xenografts. As to conditions: cited from earlier work.
A further test has as its system 131/4-5B1 melanoma cells. The test can be described thus: Proliferation of 131/4-5B1 melanoma cells (viable cell count). Type of test: cell-based. As to conditions: Homo sapiens; 131/4-5B1 cells, 72 hours incubation. On the procedure: 131/4-5B1 (human melanoma brain-metastasis cell line that was obtained from Dr. Kerbel' Lab) (15,000/well) were plated onto 24-well culture in RPMI medium supplemented with 10% FBS and incubated for 24 hours (37° C.; 5% CO2). The medium was then replaced with RPMI supplemented with 10% FBS. Cells were exposed to free selumetinib, free amine-modified dabrafenib (Scheme 8) or both, at a SLM-DBF mol ratio of 10:1 at serial dilutions. Number of viable cells was counted by a Z1 Coulter Counter® Cell and Particle Counter (Beckman Coulter®) following 72 hours incubation.
Inhibition of 131/4-5B1, human melanoma brain-metastasis cells by free selumetinib (SLM), free diol-modified dabrafenib (DBFdiol; see, Scheme 11), a combination of the free drugs at 3:1 SLM:DBFdiol mol ratio, PGA-SLM (see, Scheme 19), PGA-DBFdiol (see, Scheme 11), a combination of PGA-SLM and PGA-DBFdiol, and PGA-SLM-DBFdiol conjugate (see, Scheme 23) was determined.
131/4-5B1 cells (15,000/well) were plated onto 24-well culture in RPMI medium supplemented with 10% FBS and incubated for 24 hours (37° C.; 5% CO2). […] Cells were exposed to PGA-SLM conjugate, PGA-DBFdiol conjugate, to the combination of both at a SLM-DBF mol ratio of 10:1 and to the combined PGA-SLM-DBFdiol conjugate, calculated according to the SLM loading and assuming 10:1 mol ratio between SLM and DBF, at serial dilutions. […]

As to `CC(C)(C)c1nc(-c2cccc(NS(=O)(=O)c3c(F)cccc3F)c2F)c(-c2ccnc(N)n2)s1` [Dabrafenib], in the test with mutant BRAF, the “selectivity for mutant BRAF over wild-type BRAF” value is listed as “more than 100 fold”. In addition, the “inhibition of MEK and ERK phosphorylation” value in test [1] is on record as “dose-dependent inhibition”. Besides, the tumor regression entry in the test with melanoma xenografts was “induces tumor regression”.

By IC50 is commonly meant the concentration at which inhibition is half-maximal. With `Cn1cnc2c(F)c(Nc3ccc(Br)cc3Cl)c(C(=O)NOCCO)cc21` [SLM, Selumetinib], in the test on 131/4-5B1 melanoma cells, the IC50 was 70 nM.
